Laboratory results from paper PMC6330446, “An integrated characterization of contractile, electrophysiological, and structural cardiotoxicity of Sophora tonkinensis Gapnep. in human pluripotent stem cell-derived cardiomyocytes” (Stem Cell Research & Therapy, 2019).
Entries after “also recorded” stand apart in the source; their conditions may differ.

Legend:
hiPSC-CMs [1] = conditions: hiPSC-CMs; alkaloids 2, 10, 50 μM, aconitine 1 μM; 24 h
Description: (§1) After plating for about 3 days, CMs matured and began to beat. At this time, different compounds were added, and experiments were performed 24 h after treatment. The experiments were grouped as follows: control group (normal medium); matrine, oxymatrine, sophocarpine, and cytisine treatment (2, 10, 50 μM) groups; and aconitine treatment (1 μM) group. The doses of toxicity studies above were determined by the effective therapeutic doses reported and included or exceeded the therapeutic dose.
CMs were incubated in 10% CCK-8 (Dojindo, Kumamoto, Japan) that was diluted in normal culture medium at 37 °C until a visual color conversion occurred. The absorbance of each well was measured using a microplate reader (Spectrafluor, TECAN, Sunrise, Austria) at 450 nm. Three individual experiments were performed. All samples were operated in duplicate.
A 96-well plate was used to seed hiPSC-CMs at a concentration of 5 × 10^4 cells per well. The cultured cells were treated with different concentrations of compounds and were incubated for another 48 h. CMs were digested with trypsin, and a small amount of cell suspension was added into the same amount of trypan blue solution. Countstar Automated Cell Counter IC1000 (Elite Life Sciences, Shanghai, China) was used to count the number of total and living cells. Data were presented as the mean ± SEM, n ≥ 3.

hiPSC-CMs [2] = conditions: hiPSC-CMs; alkaloids 2, 10, 50 μM, aconitine 1 μM
Description: as §1
Cell treatment method was the same as above. After reaching the predetermined time, 120 μl of the supernatant of each well was taken for measuring LDH leakage using a commercially available kit (Beyotime Biotechnology, Shanghai, China) following the manufacturer’s instructions. Data were presented as the mean ± SEM, n ≥ 3.

hiPSC-CMs [3] = assay: CK-MB and cardiac troponin I ELISA assay; format: cell-based, human; conditions: alkaloids 2, 10, 50 μM, aconitine 1 μM
Description: as §1
Cell treatment method was the same as above. After the administration, the cells were digested and then destroyed by repeated freeze-thaw and sonication to release the components in the cells. Centrifuged at 2500 rpm for 20 min, the supernatant was collected for the detection of creatine kinase MB isoenzyme (CK-MB) and cardiac troponin I (CTn-I) ELISA kit (Expandbiotech, Beijing, China) following the manufacturer’s instructions. Data were presented as the mean ± SEM, n ≥ 3.

hiPSC-CMs [4] = format: cell-based, human; conditions: hiPSC-CMs; high dose of alkaloids (50 μM), aconitine 1 μM
Description: Cells were incubated in a maintaining medium containing 10 μM DCFH-DA (Beyotime Biotechnology, Shanghai, China) for 30 min at 37 °C in the dark. The measurement of ROS was performed with IncuCyte™ S3 ZOOM cell imaging system (Essen BioScience, Ann Arbor, MI). TissueQuest 6.0 was used for the quantitative analysis of ROS formation. Data were presented as the mean ± SEM, n ≥ 3.

GCaMP hESC-CMs = format: cell-based, human; conditions: GCaMP hESC-CMs; high dose of alkaloids (50 μM), aconitine 1 μM
Description: The hESC-CMs in this experiment can express the GCaMP reporter gene by gene editing, and green fluorescence marker can be observed by a fluorescence microscope. The fluorescence intensity is proportional to Ca^2+ concentration. The CMs were seeded into 96-well plates at 5000/well and were administered the same as above. The fluorescence intensities of hESC-CMs were monitored using an IncuCyte™ S3 ZOOM cell imaging system (Essen BioScience, Ann Arbor, MI). Data were presented as the mean ± SEM, n ≥ 3.

hiPSC-CMs [5] = assay: TUNEL staining (apoptosis); format: cell-based, human; conditions: high dose of alkaloids, aconitine
Description: Supplementary file 13287_2018_1126_MOESM1_ESM.tif: Additional file 1: Figure S1. Effect of matrine, oxymatrine, cytisine, and sophocarpine on TUNEL staining in hiPSC-CMs. After treatment with matrine, oxymatrine, cytisine, and sophocarpine, the images of TUNEL fluorescence and bright field were acquired intuitively using IncuCyte™ S3 ZOOM cell imaging system and the fluorescence intensity was analyzed quantitatively using TissueQuest 6.0. […] The scale bar is 400 μm. Data are presented as the mean ± SEM, n ≥ 3. […] vs the control group. (TIF 23588 kb)

CCN1C[C@]2(COC)[C@H](O)C[C@H](OC)[C@@]34[C@@H]5C[C@@]6(O)[C@H](OC(=O)c7ccccc7)[C@@H]5[C@@](OC(C)=O)([C@@H]([C@H](OC)[C@H]23)[C@@H]14)[C@@H](O)[C@@H]6OC [aconitine, reference compound]
Cell viability (in words) (hiPSC-CMs [1]): showed a great significance | LDH level in the supernatant (in words) (hiPSC-CMs [2]): induced a large amount; also recorded: increased immensely | CK-MB level (in words) (hiPSC-CMs [3]): induced a large amount; also recorded: increased immensely | CTnI level (in words) (hiPSC-CMs [3]): induced a large amount | ROS fluorescence / ROS production (in words) (hiPSC-CMs [4]): induced excessive ROS production | Fluorescence intensity of calcium, [Ca^2+]i (in words) (GCaMP hESC-CMs): increased drastically | TUNEL fluorescence staining (in words) (hiPSC-CMs [5]): huge increase
